Results published in patent publication US20230233541A1, “SUBSTITUTED BENZAMIDES AS MODULATORS OF TREX1” (Constellation Pharmaceuticals, Inc., priority 2020, published 2023).

Experiments:
[1] = target: T1, human TREX2 (residues M44-A279) (Homo sapiens, UniProt Q9BQ50); experiment: TREX2 Biochemical Assay (fluorescence assay, degradation of dsDNA substrate); conditions: 2.5 nM TREX2, 60 nM dsDNA substrate, 25 minutes at room temperature; read-out: hTREX2 EC50
T1 construct: human TREX2 (residues M44-A279, expressed in E. coli); His-Tev (His tag with TEV protease site) (N); made in house; host or cells: E. coli
T1 sequence (Q9BQ50 44-279 isoform Q9BQ50-1): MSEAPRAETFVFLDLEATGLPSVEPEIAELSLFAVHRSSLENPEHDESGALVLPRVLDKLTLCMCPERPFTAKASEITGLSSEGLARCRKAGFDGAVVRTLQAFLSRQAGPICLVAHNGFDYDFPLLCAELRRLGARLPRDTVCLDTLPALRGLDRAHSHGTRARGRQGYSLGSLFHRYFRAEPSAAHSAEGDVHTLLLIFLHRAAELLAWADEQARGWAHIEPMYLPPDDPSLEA
Description: Degradation of the dsDNA liberates free fluorophore to produce a fluorescent signal. Specifically, 7.5 μL of N-terminally His-Tev tagged human TREX2 (residues M44-A279, expressed in E. coli and purified in house) in reaction buffer (50 mM Tris (pH 7.4), 150 mM NaCl, 2 mM DTT, 0.1 mg/mL BSA, 0.01% (v/v) Tween-20 and 100 mM MgCl2) was added to a 384-well Black ProxiPlate Plus (Perkin Elmer) which already contained compound (150 nL) at varying concentrations as a 10-point dose-response in DMSO. To this was added 7.5 μL of dsDNA substrate (Strand A: 5′ TEX615/GCT AGG CAG 3′; Strand B: 5′ CTG CCT AGC/IAbRQSp (IDT)) in reaction buffer. Final concentrations were 2.5 nM TREX2, 60 nM dsDNA substrate in reaction buffer with 1.0% DMSO (v/v). After 25 minutes at room temperature, reactions were quenched by the addition of 5 μL of stop buffer (same as reaction buffer plus 200 mM EDTA). Final concentrations in the quenched reaction mixture were […] TREX2, 45 nM DNA and 50 mM EDTA in a volume of 20 μL. After a 5-minute incubation at room temperature, plates were read in a laser sourced Envision (Perkin-Elmer), measuring fluorescence at 615 nm following excitation w/570 nm light. IC50 values were calculated by comparing the measured fluorescence at 615 nm ratio relative to control wells pre-quenched w/stop buffer (100% inhibition) and no inhibitor (0% inhibition) controls as using non-linear least square four parameter fits and either Genedata or GraphPad Prism (GraphPad Software, Inc.).

full length human TREX1 = target: T2, full length human TREX1 (Homo sapiens, UniProt Q9NSU2); experiment: TREX1 Biochemical Assay (fluorescence assay, degradation of dsDNA substrate); conditions: 150 pM TREX1, 60 nM dsDNA substrate, 25 minutes at room temperature; read-out: hTREX1 EC50
T2 construct: N-terminally His-Tev tagged full length human TREX1; His-Tev (His tag with TEV protease site) (N); made in house; host or cells: E. coli
T2 sequence (Q9NSU2 1-314): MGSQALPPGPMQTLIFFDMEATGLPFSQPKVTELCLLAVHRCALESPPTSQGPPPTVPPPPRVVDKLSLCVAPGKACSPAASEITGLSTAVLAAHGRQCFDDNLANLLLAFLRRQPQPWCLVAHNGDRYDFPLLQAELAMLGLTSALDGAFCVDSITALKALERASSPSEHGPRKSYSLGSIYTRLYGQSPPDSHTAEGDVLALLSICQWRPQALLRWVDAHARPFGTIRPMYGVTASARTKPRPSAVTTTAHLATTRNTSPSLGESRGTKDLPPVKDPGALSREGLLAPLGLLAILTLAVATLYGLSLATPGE
Description: Degradation of the dsDNA liberates free fluorophore to produce a fluorescent signal. Specifically, 7.5 μL of N-terminally His-Tev tagged full length human TREX1 (expressed in E. coli and purified in house) in reaction buffer (50 mM Tris (pH 7.4), 150 mM NaCl, 2 mM DTT, 0.1 mg/mL BSA, 0.01% (v/v) Tween-20 and 100 mM MgCl2) was added to a 384-well Black ProxiPlate Plus (Perkin Elmer) which already contained compound (150 nL) at varying concentrations as a 10-point dose-response in DMSO. To this was added 7.5 μL of dsDNA substrate (Strand A: 5′ TEX615/GCT AGG CAG 3′; Strand B: 5′ CTG CCT AGC/IAbRQSp (Integrated DNA Technologies)) in reaction buffer. Final concentrations were 150 pM TREX1, 60 nM dsDNA substrate in reaction buffer with 1.0% DMSO (v/v). After 25 minutes at room temperature, reactions were quenched by the addition of 5 μL of stop buffer (same as reaction buffer plus 200 mM EDTA). Final concentrations in the quenched reaction were 112.5 pM TREX1, 45 nM DNA and 50 mM EDTA in a volume of 20 μL. After a 5-minute incubation at room temperature, plates were read in a laser sourced Envision (Perkin-Elmer), measuring fluorescence at 615 nm following excitation w/570 nm light. IC50 values were calculated by comparing the measured fluorescence at 615 nm ratio relative to control wells pre-quenched w/stop buffer (100% inhibition) and no inhibitor (0% inhibition) controls as using non-linear least square four parameter fits and either Genedata or GraphPad Prism (GraphPad Software, Inc.).

Row | EC50 [1] [µM] | EC50 (full length human TREX1) [µM] | SMILES
1 | > 100 | 1 to 10 | O=C(O)Cn1cc(CN(Cc2ccc(Cl)cc2Cl)C(=O)c2cc(F)cc(F)c2)cn1 [Compound 165, 2-(4-((N-(2,4-dichlorobenzyl)-3,5-difluorobenzamido)methyl)-1H-pyrazol-1-yl)acetic acid]
2 | 10 to 100 | 0.1 to 1 | Cn1cc(CN(Cc2ccc(C(=O)O)nc2)C(=O)c2cc(F)cc(F)c2)c(C(F)(F)F)n1 [Compound 185]
3 | 10 to 100 | 0.1 to 1 | COc1cccc([C@@H](C)N(Cc2ccc(-c3ccn[nH]3)nc2)C(=O)c2cc(F)cc(F)c2)c1Cl [Compound 225]
4 | 1 to 10 | < 0.1 | O=C(O)c1ccc(CN(Cc2ccnc(Cl)c2Cl)C(=O)c2cc(F)cc(F)c2)cn1 [Compound 201]
5 | > 100 | 1 to 10 | O=C(c1cccc(F)c1F)N(Cc1cccnc1)Cc1ccc(Cl)cc1Cl [Compound 124]
6 | 1 to 10 | < 0.1 | CC[C@@H](c1cccc(OC)c1Cl)N(Cc1ccc(C(=O)O)nc1)C(=O)c1cc(F)cc(F)c1 [Compound 167]
7 | > 100 | > 10 | O=C(c1cccc(Oc2ccccc2)c1)N(Cc1cccnc1)Cc1cc(Cl)cc(Cl)c1 [Compound 66]
8 | > 100 | > 10 | Cc1ccc(CN(Cc2ccc(Cl)cc2Cl)C(=O)c2cccc(F)c2)cn1 [Compound 110]
9 | > 100 | > 10 | O=C(c1ccc(Br)cc1)N(Cc1cccnc1)Cc1cc(Cl)cc(Cl)c1 [Compound 26]
10 | > 100 | > 10 | O=C(c1cccc(F)c1)N(Cc1ccccn1)Cc1ccc(Cl)cc1Cl [Compound 95]
11 | 10 to 100 | > 10 | NCC[C@H](c1cccc(Cl)c1Cl)N(Cc1cccnc1)C(=O)c1cc(F)cc(F)c1 [Compound 238]
12 | 1 to 10 | 0.1 to 1 | O=C(c1cc(F)cc(F)c1)N(Cc1cnc2c(=O)[nH]c(=O)[nH]c2c1)Cc1cccc(Cl)c1Cl [Compound 181]
13 | > 100 | > 10 | O=C(c1ccc(CO)cc1)N(Cc1cccnc1)Cc1cc(Cl)cc(Cl)c1 [Compound 64]
14 | > 100 | > 10 | O=C(c1ccccc1Oc1ccccc1)N(Cc1cccnc1)Cc1cc(Cl)cc(Cl)c1 [Compound 55]
15 | 1 to 10 | < 0.1 | CCOc1cccc([C@@H](CC)N(Cc2ccc(C(=O)O)nc2)C(=O)c2cc(F)cc(F)c2)c1Cl [Compound 228]
16 | > 100 | > 10 | O=C(c1ccc2ccccc2c1)N(Cc1cccnc1)Cc1ccc(Cl)cc1Cl [Compound 28]
17 | > 100 | 1 to 10 | O=C(c1ccc(F)c(Cl)c1)N(Cc1cccnc1)Cc1cc(Cl)cc(Cl)c1 [Compound 65]
18 | 10 to 100 | 0.1 to 1 | O=C(O)c1ccc(CN(Cc2cccc(Cl)c2Cl)C(=O)c2cc(F)cc(F)c2)c(O)n1 [Compound 247]
19 | 10 to 100 | 0.1 to 1 | O=C(c1cc(F)cc(F)c1)N(Cc1ccc(-c2cnn[nH]2)nc1)Cc1ccccc1Cl [Compound 171]
20 | > 100 | > 10 | O=C(c1cccc(F)c1)N(Cc1ccncc1)Cc1ccc(Cl)cc1Cl [Compound 97]
21 | 10 to 100 | < 0.1 | O=C(c1cc(F)cc(F)c1)N(Cc1ccc(-c2ccn[nH]2)nc1)Cc1ccccc1Cl [Compound 170]

Row | EC50 [1] [µM] | EC50 (full length human TREX1) [µM] | SMILES
22 | > 100 | 1 to 10 | O=C(c1cccc(F)c1)N(Cc1cncnc1)Cc1ccc(Cl)cc1Cl [Compound 106]
23 | 10 to 100 | 1 to 10 | CN(C)c1cc(CN(Cc2cccc(Cl)c2Cl)C(=O)c2cc(F)cc(F)c2)cnc1C(=O)O [Compound 243]
24 | 10 to 100 | 0.1 to 1 | COc1ccnc(CN(Cc2ccc(C(=O)O)nc2)C(=O)c2cc(F)cc(F)c2)c1Cl [Compound 189]
25 | 10 to 100 | 1 to 10 | O=C(c1cccc(F)c1)N(Cc1ccc(CO)nc1)Cc1ccc(Cl)cc1Cl [Compound 145, N-(2,4-dichlorobenzyl)-3-fluoro-N-((6-(hydroxymethyl)pyridin-3-yl)methyl)benzamide]
26 | 10 to 100 | 0.1 to 1 | O=C(c1cc(F)cc(F)c1)N(Cc1cccnc1)Cc1ccc(Cl)cc1Cl [Compound 121]
27 | > 100 | 0.1 to 1 | NC(=O)Cc1ccc(CN(Cc2ccc(Cl)cc2Cl)C(=O)c2cc(F)cc(F)c2)cn1 [Compound 217]
28 | > 100 | > 10 | COc1cc(C(=O)N(Cc2cccnc2)Cc2cc(Cl)cc(Cl)c2)cc(Br)c1OC [Compound 47]
29 | > 100 | > 10 | COc1cc(C(=O)N(Cc2cccnc2)Cc2ccc(Cl)cc2Cl)cc(Cl)c1O [Compound 22]
30 | > 100 | > 10 | O=C(c1ccc(Oc2ccccc2)cc1)N(Cc1cccnc1)Cc1cc(Cl)cc(Cl)c1 [Compound 71]
31 | 1 to 10 | < 0.1 | CC[C@H](c1cccc(Cl)c1Cl)N(Cc1cnc(C(=O)O)c(N)c1)C(=O)c1cc(F)cc(F)c1 [Compound 239]
32 | > 100 | > 10 | O=C(c1ccc(F)cn1)N(Cc1cccnc1)Cc1ccc(Cl)cc1Cl [Compound 99]
33 | 1 to 10 | < 0.1 | O=C(O)c1ccc(CN(Cc2cc(Cl)ccc2Cl)C(=O)c2cc(F)cc(F)c2)cn1 [Compound 187]
34 | 10 to 100 | > 10 | O=C(c1cccc(F)c1)N(Cc1cccnc1)[C@@H](CO)c1ccc(Cl)cc1Cl (single isomer, unassigned) [Compound 161]
35 | > 100 | > 10 | COc1cc(Br)cc(C(=O)N(Cc2cccnc2)Cc2cc(Cl)cc(Cl)c2)c1 [Compound 52]
36 | > 100 | > 10 | O=C(c1cccc(F)c1)N(Cc1ccc(Cl)cc1)Cc1cccnc1 [Compound 138, N-[(4-chlorophenyl)methyl]-3-fluoro-N-[(pyridin-3-yl)methyl]benzamide]
37 | 10 to 100 | 0.1 to 1 | O=C(c1cccc(F)c1)N(Cc1cccnc1)Cc1cccc(Cl)c1Cl [Compound 136]
38 | > 100 | 1 to 10 | O=C(c1ccc(Br)cc1)N(Cc1cccnc1)Cc1ccc(Cl)cc1Cl [Compound 6]
39 | 1 to 10 | 0.1 to 1 | CC(C)(C)OC(=O)Nc1cncc(CN(Cc2cccc(Cl)c2Cl)C(=O)c2cc(F)cc(F)c2)c1 [Compound 212]
40 | > 100 | > 10 | CC(C)(C)c1ccc(C(=O)N(Cc2cccnc2)Cc2ccc(Cl)cc2Cl)cc1 [Compound 82]
41 | 10 to 100 | 0.1 to 1 | CC[C@H](c1ccc(Cl)cc1Cl)N(Cc1cccnc1)C(=O)c1cccc(F)c1 (single isomer, unassigned) [Compound 157]
